The text below walks through data of patent US20170197979A1, “BENZOTHIADIAZOLAMINES” (BAYER PHARMA AKTIENGESELLSCHAFT, priority 2014, published 2017).

pIC50: −log10 of the molar value.

The target of one assay is T1, human full-length MKNK1 (Homo sapiens, UniProt Q9BUB5, T385D).
T1 construct: GST (N); purchased Carna Biosciences 02-145; host or cells: insect cells (baculovirus expression system)
T1 sequence (Q9BUB5 1-424 isoform Q9BUB5-2 T344D): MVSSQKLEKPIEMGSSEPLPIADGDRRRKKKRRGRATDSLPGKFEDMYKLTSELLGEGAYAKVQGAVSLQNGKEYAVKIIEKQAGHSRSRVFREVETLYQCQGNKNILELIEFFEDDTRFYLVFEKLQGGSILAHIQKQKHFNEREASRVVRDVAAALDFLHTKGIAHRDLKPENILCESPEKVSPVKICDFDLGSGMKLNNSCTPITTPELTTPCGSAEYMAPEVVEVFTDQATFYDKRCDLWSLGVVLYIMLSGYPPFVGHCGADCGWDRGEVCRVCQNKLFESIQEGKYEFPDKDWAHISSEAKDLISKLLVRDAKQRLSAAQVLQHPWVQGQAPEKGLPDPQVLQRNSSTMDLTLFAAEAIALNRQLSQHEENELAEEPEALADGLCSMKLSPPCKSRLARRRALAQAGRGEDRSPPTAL
The experiment in a line: MKNK1 kinase high ATP assay (TR-FRET). In kind it is biochemical.
Conditions: not given
The method, then:
MKNK1 Kinase High ATP Assay
MKNK1-inhibitory activity at high ATP of compounds of the present invention after their preincubation with MKNK1 was quantified employing the TR-FRET-based MKNK1 high ATP assay as described in the following paragraphs.
A recombinant fusion protein of Glutathione-S-Transferase (GST, N-terminally) and human full-length MKNK1 (amino acids 1-424 and T344D of accession number BAA 19885.1), expressed in insect cells using baculovirus expression system and purified via glutathione sepharose affinity chromatography, was purchased from Carna Biosciences (product no 02-145) and used as enzyme. As substrate for the kinase reaction the biotinylated peptide biotin-Ahx-IKKRKLTRRKSLKG (C-terminus in amide form) was used, which can be purchased e.g. from the company Biosyntan (Berlin-Buch, Germany).
For the assay 50 nL of a 100 fold concentrated solution of the test compound in DMSO was pipetted into a black low volume 384 well microtiter plate (Greiner Bio-One, Frickenhausen, Germany), 2 μL of a solution of MKNK1 in aqueous assay buffer [50 mM HEPES pH 7.5, 5 mM MgCl2, 1.0 mM dithiothreitol, 0.005% (v/v) Nonidet-P40 (Sigma)] was added and the mixture was incubated for 15 min at 22° C. to allow pre-binding of the test compounds to the enzyme before the start of the kinase reaction. Then the kinase reaction was started by the addition of 3 μL of a solution of adenosine-tri-phosphate (ATP, 3.3 mM=>final conc. in the 5 μL assay volume is 2 mM) and substrate (0.1 μM=>final conc. in the 5 μL assay volume is 0.06 μM) in assay buffer and the resulting mixture was incubated for a reaction time of 30 min at 22° C. The concentration of MKNK1 was adjusted depending of the activity of the enzyme lot and was chosen appropriate to have the assay in the linear range, typical concentrations were in the range of 0.003 μg/mL. The reaction was stopped by the addition of 5 μL of a solution of TR-FRET detection reagents (5 nM streptavidine-XL665 [Cisbio Bioassays, Codolet, France] and 1 nM anti-ribosomal protein S6 (pSer236)-antibody from Invitrogen [#44921G] and 1 nM LANCE EU-W1024 labeled ProteinG [Perkin-Elmer, product no. AD0071]) in an aqueous EDTA-solution (100 mM EDTA, 0.1% (w/v) bovine serum albumin in 50 mM HEPES pH 7.5).
The resulting mixture was incubated for 1 h at 22° C. to allow the formation of complex between the phosphorylated biotinylated peptide and the detection reagents. Subsequently the amount of phosphorylated substrate was evaluated by measurement of the resonance energy transfer from the Eu-chelate to the streptavidine-XL. Therefore, the fluorescence emissions at 620 nm and 665 nm after excitation at 350 nm were measured in a TR-FRET reader, e.g. a Rubystar (BMG Labtechnologies, Offenburg, Germany) or a Viewlux (Perkin-Elmer). The ratio of the emissions at 665 nm and at […] was taken as the measure for the amount of phosphorylated substrate. The data were normalised (enzyme reaction without inhibitor=0% inhibition, all other assay components but no enzyme=100% inhibition).
For orientation: TR-FRET usually uses a lanthanide donor and a delayed reading to cut background.
Consider `O=C1CCN(C(=O)[C@H]2CCc3c(sc4ncnc(Nc5ccc6nnsc6c5)c34)C2)CC1` [Example 16, 1-{[(7S)-4-(1,2,3-Benzothiadiazol-6-ylamino)-5,6,7,8-tetrahydro[1]benzothieno[2,3-d]pyrimidin-7-yl]carbonyl}piperidin-4-one], for which the pIC50 is 7.82.

Still in this assay, the particulars now being: TR-FRET, high ATP (2 mM final), 15 min preincubation with enzyme, GST-MKNK1 (T344D); read-out: MKNK1 IC50.
As for `CN(C)C(=O)[C@H]1CCc2c(sc3ncnc(Nc4ccc5nnsc5c4)c23)C1` [Example 1, (7S)-4-(1,2,3-Benzothiadiazol-6-ylamino)-N,N-dimethyl-5,6,7,8-tetrahydro[1]benzothieno[2,3-d]pyrimidine-7-carboxamide], the negative logarithm of the IC50 (pIC50) is 7.80. Turning to `COCCN(C)C(=O)[C@H]1CCc2c(sc3ncnc(Nc4ccc5nnsc5c4)c23)C1` [Example 2, (7S)-4-(1,2,3-Benzothiadiazol-6-ylamino)-N-(2-methoxyethyl)-N-methyl-5,6,7,8-tetrahydro[1]benzothieno[2,3-d]pyrimidine-7-carboxamide], the pIC50 is 8.03. Same read-out and setting: the value for `C[C@@H]1CN(C(=O)[C@H]2CCc3c(sc4ncnc(Nc5ccc6nnsc6c5)c34)C2)C[C@H](C)O1` [Example 3, [(7S)-4-(1,2,3-Benzothiadiazol-6-ylamino)-5,6,7,8-tetrahydro[1]benzothieno[2,3-d]pyrimidin-7-yl][(2R,6S)-2,6-dimethylmorpholin-4-yl]methanone] was 7.89; that for `C[C@@H]1COCCN1C(=O)[C@H]1CCc2c(sc3ncnc(Nc4ccc5nnsc5c4)c23)C1` [Example 4, [(7S)-4-(1,2,3-Benzothiadiazol-6-ylamino)-5,6,7,8-tetrahydro[1]benzothieno[2,3-d]pyrimidin-7-yl][(3R)-3-methylmorpholin-4-yl]methanone] was 7.96; that for `C[C@H]1COCCN1C(=O)[C@H]1CCc2c(sc3ncnc(Nc4ccc5nnsc5c4)c23)C1` [Example 5, [(7S)-4-(1,2,3-Benzothiadiazol-6-ylamino)-5,6,7,8-tetrahydro[1]benzothieno[2,3-d]pyrimidin-7-yl][(3S)-3-methylmorpholin-4-yl]methanone] was 7.92.

Consider `O=C([C@H]1CCc2c(sc3ncnc(Nc4ccc5nnsc5c4)c23)C1)N1CCOCC1` [Example 6, [(7S)-4-(1,2,3-Benzothiadiazol-6-ylamino)-5,6,7,8-tetrahydro[1]benzothieno[2,3-d]pyrimidin-7-yl](morpholin-4-yl)methanone], for which the pIC50 was 7.74. As to `C[C@@H]1COC[C@H](C)N1C(=O)[C@H]1CCc2c(sc3ncnc(Nc4ccc5nnsc5c4)c23)C1` [Example 7, [(7S)-4-(1,2,3-Benzothiadiazol-6-ylamino)-5,6,7,8-tetrahydro[1]benzothieno[2,3-d]pyrimidin-7-yl][(3R,5S)-3,5-dimethylmorpholin-4-yl]methanone], the pIC50 is 8.24. Consider `C[C@@H]1CN(C(=O)[C@H]2CCc3c(sc4ncnc(Nc5ccc6nnsc6c5)c34)C2)C[C@@H](C)O1` [Example 8, [(7S)-4-(1,2,3-Benzothiadiazol-6-ylamino)-5,6,7,8-tetrahydro[1]benzothieno[2,3-d]pyrimidin-7-yl][(2R,6R)-2,6-dimethylmorpholin-4-yl]methanone], for which the pIC50 was 8.19. For the molecule `C[C@@H]1COC[C@@H](C)N1C(=O)[C@H]1CCc2c(sc3ncnc(Nc4ccc5nnsc5c4)c23)C1` [Example 9, [(7S)-4-(1,2,3-Benzothiadiazol-6-ylamino)-5,6,7,8-tetrahydro[1]benzothieno[2,3-d]pyrimidin-7-yl][(3R,5R)-3,5-dimethylmorpholin-4-yl]methanone], the pIC50 is 8.27. In the case of `C[C@H]1CN(C(=O)[C@H]2CCc3c(sc4ncnc(Nc5ccc6nnsc6c5)c34)C2)C[C@H](C)O1` [Example 10, [(7S)-4-(1,2,3-Benzothiadiazol-6-ylamino)-5,6,7,8-tetrahydro[1]benzothieno[2,3-d]pyrimidin-7-yl][(2S,6S)-2,6-dimethylmorpholin-4-yl]methanone], the pIC50 is 8.30. Regarding `CN(C(=O)[C@H]1CCc2c(sc3ncnc(Nc4ccc5nnsc5c4)c23)C1)S(C)(=O)=O` [Example 11, (7S)-4-(1,2,3-Benzothiadiazol-6-ylamino)-N-methyl-N-(methylsulfonyl)-5,6,7,8-tetrahydro[1]benzothieno[2,3-d]pyrimidine-7-carboxamide], the pIC50 was 7.92. In the case of `CN(C)CCN1CCN(C(=O)[C@H]2CCc3c(sc4ncnc(Nc5ccc6nnsc6c5)c34)C2)CC1` [Example 12, [(7S)-4-(1,2,3-Benzothiadiazol-6-ylamino)-5,6,7,8-tetrahydro[1]benzothieno[2,3-d]pyrimidin-7-yl]{4-[2-(dimethylamino)ethyl]piperazin-1-yl}methanone], the pIC50 was 8.19. For the molecule `CN(C)[C@H]1CCN(C(=O)[C@H]2CCc3c(sc4ncnc(Nc5ccc6nnsc6c5)c34)C2)C1` [Example 13, [(7S)-4-(1,2,3-Benzothiadiazol-6-ylamino)-5,6,7,8-tetrahydro[1]benzothieno[2,3-d]pyrimidin-7-yl][(3S)-3-(dimethylamino)pyrrolidin-1-yl]methanone], the negative logarithm of the IC50 (pIC50) was 8.21. For `CN(C)C1CN(C(=O)[C@H]2CCc3c(sc4ncnc(Nc5ccc6nnsc6c5)c34)C2)C1` [Example 14, [(7S)-4-(1,2,3-Benzothiadiazol-6-ylamino)-5,6,7,8-tetrahydro[1]benzothieno[2,3-d]pyrimidin-7-yl][3-(dimethylamino)azetidin-1-yl]methanone], the pIC50 is 7.59.

In the case of `CN(C)C1CCN(C(=O)[C@H]2CCc3c(sc4ncnc(Nc5ccc6nnsc6c5)c34)C2)CC1` [Example 15, [(7S)-4-(1,2,3-Benzothiadiazol-6-ylamino)-5,6,7,8-tetrahydro[1]benzothieno[2,3-d]pyrimidin-7-yl][4-(dimethylamino)piperidin-1-yl]methanone], the pIC50 was 8.00. Same read-out and setting: the figure for `O=C([C@H]1CCc2c(sc3ncnc(Nc4ccc5nnsc5c4)c23)C1)N1CCC(F)(F)C1` [Example 17, [(7S)-4-(1,2,3-Benzothiadiazol-6-ylamino)-5,6,7,8-tetrahydro[1]benzothieno[2,3-d]pyrimidin-7-yl](3,3-difluoropyrrolidin-1-yl)methanone] is 7.96; for `O=C([C@H]1CCc2c(sc3ncnc(Nc4ccc5nnsc5c4)c23)C1)N1C[C@@H]2C[C@H]1CO2` [Example 18, [(7S)-4-(1,2,3-Benzothiadiazol-6-ylamino)-5,6,7,8-tetrahydro[1]benzothieno[2,3-d]pyrimidin-7-yl][(1S,4S)-2-oxa-5-azabicyclo[2.2.1]hept-5-yl]methanone] it is 7.85; for `CN1C[C@@H]2C[C@H]1CN2C(=O)[C@H]1CCc2c(sc3ncnc(Nc4ccc5nnsc5c4)c23)C1` [Example 19, [(7S)-4-(1,2,3-Benzothiadiazol-6-ylamino)-5,6,7,8-tetrahydro[1]benzothieno[2,3-d]pyrimidin-7-yl][(1S,4S)-5-methyl-2,5-diazabicyclo[2.2.1]hept-2-yl]methanone] it is 7.70. In the case of `O=C([C@H]1CCc2c(sc3ncnc(Nc4ccc5nnsc5c4)c23)C1)N1CC2(COC2)C1` [Example 20, [(7S)-4-(1,2,3-Benzothiadiazol-6-ylamino)-5,6,7,8-tetrahydro[1]benzothieno[2,3-d]pyrimidin-7-yl](2-oxa-6-azaspiro[3.3]hept-6-yl)methanone], the pIC50 was 7.80. Regarding `CN(C)CCN(C)C1CCN(C(=O)[C@H]2CCc3c(sc4ncnc(Nc5ccc6nnsc6c5)c34)C2)CC1` [Example 21, [(7S)-4-(1,2,3-Benzothiadiazol-6-ylamino)-5,6,7,8-tetrahydro[1]benzothieno[2,3-d]pyrimidin-7-yl](4-{[2-(dimethylamino)ethyl](methyl)amino}piperidin-1-yl)methanone], the pIC50 was 8.89.

For `CN(CCNC(=O)OC(C)(C)C)C(=O)[C@H]1CCc2c(sc3ncnc(Nc4ccc5nnsc5c4)c23)C1` [Example 22, tert-Butyl {2-[{[(7S)-4-(1,2,3-benzothiadiazol-6-ylamino)-5,6,7,8-tetrahydro[1]benzothieno[2,3-d]pyrimidin-7-yl]carbonyl}(methyl)amino]ethyl}carbamate], the negative logarithm of the IC50 (pIC50) is 7.85.

What is called pIC50 is −log10 of the IC50, conventionally taken in molar units.
